Assay: Clinical study 5.16: serum concentration of tilmicosin after oral administration
Format: in vivo
Details: oral 20 mg/kg, gelatin capsule with the gel of Example 5.14
Description: Tilmicosin was orally administered to a dog using the pharmaceutical composition of Example 5.14. A sufficient amount of the gel of example 5.14 was placed in a gelatin capsule to provide a dose of 20 mg/kg to the dog. The dog was then orally administered the gelatin capsule containing the tilmicosin pharmaceutical composition of Example 5.14. Blood was then withdrawn from the dog at various time intervals and the serum concentration of tlmicosin determined by the following procedure: (i) A C-18 cartridge (commercially available from Waters Corp. of Milford, Mass.) was connected to a 20 mL syringe and to a single diaphragm vacuum pump (commercially available from Gast Manufacturing Inc. of Benton Harbor, Mich.). […]

## CC[C@H]1OC(=O)C[C@@H](O)[C@H](C)[C@@H](O[C@@H]2O[C@H](C)[C@@H](O)[C@H](N(C)C)[C@H]2O)[C@@H](CCN2C[C@H](C)C[C@H](C)C2)C[C@@H](C)C(=O)/C=C/C(C)=C/[C@@H]1CO[C@@H]1O[C@H](C)[C@@H](O)[C@@H](OC)[C@H]1OC [Tilmicosin]
  time for which tilmicosin is provided in the blood of the dog: at least 48 h

Source: patent US8361496B2, “Phospholipid gel compositions for drug delivery and methods of treating conditions using same” (Idexx Laboratories Inc., priority 2004, dated 2013)
